Laboratory results published in ChEMBL document CHEMBL4364286, “Structure-Guided Design, Synthesis, and Biological Evaluation of (2-(1H-Indol-3-yl)-1H-imidazol-4-yl)(3,4,5-trimethoxyphenyl) Methanone (ABI-231) Analogues Targeting the Colchicine Binding Site in Tubulin” (J Med Chem, 2019).
Activity calls are given as the source filed them. The rule behind the calls is not given here.

How the values were obtained:
[1] = Intrinsic clearance in human liver microsomes in presence of NADPH regenerating system; type: ADME, Microsome; settings: read-out: CLH
[2] = Acute toxicity in nude mouse xenografted with human A375 cells assessed as injury to heart at 30 mg/kg, ip administered once daily for 14 days by hematoxylin and eosin staining-based assay; type: organism-based; settings: in vivo, 336 h
[3] = test system: WM164; test: Antiproliferative activity against human WM164 cells after 72 hrs by MTT assay; type: functional, cell-based; settings: WM164, 72 h
[4] = Toxicity in ip dosed ICR mouse assessed as maximum tolerated dose; type: organism-based; settings: in vivo
[5] = test system: RPMI-7951; test: Antimigratory activity in human RPMI7951 cells assessed as wound closure at 25 nM after 18 hrs by scratch migration assay (reference value: 71.8 +/- 1.8%); type: functional
[6] = Acute toxicity in nude mouse xenografted with human A375 cells assessed as injury to kidney at 15 mg/kg, ip administered once daily for 14 days by hematoxylin and eosin staining-based assay; type: organism-based; settings: in vivo, 336 h
[7] = biological target: Sodium-dependent noradrenaline transporter (Homo sapiens, UniProt P23975); test: Antagonist activity at human norepinephrine transporter at 1 uM; type: ADME
[8] = test system: A-375; test: Antitumor activity against human A375 cells xenografted in nude mouse assessed as reduction in tumor weight at 15 mg/kg, ip administered once daily for 14 days relative to control; type: functional; design: scale not given: the % may be the effect or the level left
[9] = Acute toxicity in C57BL/6 mouse xenografted with mouse B16F10 cells assessed as injury to spleen at 30 mg/kg, ip administered once daily for 2 weeks with 2 days rest after day 5 and measured after 15 days by hematoxylin and eosin staining-based assay; type: organism-based; settings: in vivo, 360 h
[10] = test system: A-375; test: Inhibition of anchorage-dependent colony formation in human A375 cells assessed as decrease in colony number at 5 nM after 12 days by crystal violet-staining based assay relative to control; type: functional; settings: A-375, 288 h
[11] = Acute toxicity in C57BL/6 mouse xenografted with mouse B16F10 cells assessed as injury to heart at 30 mg/kg, ip administered once daily for 2 weeks with 2 days rest after day 5 and measured after 15 days by hematoxylin and eosin staining-based assay; type: organism-based; settings: in vivo, 360 h
[12] = Acute toxicity in C57BL/6 mouse xenografted with mouse B16F10 cells assessed as injury to liver at 30 mg/kg, ip administered once daily for 2 weeks with 2 days rest after day 5 and measured after 15 days by hematoxylin and eosin staining-based assay; type: organism-based; settings: in vivo, 360 h
[13] = Acute toxicity in C57BL/6 mouse xenografted with mouse B16F10 cells assessed as injury to kidney at 30 mg/kg, ip administered once daily for 2 weeks with 2 days rest after day 5 and measured after 15 days by hematoxylin and eosin staining-based assay; type: organism-based; settings: in vivo, 360 h
[14] = biological target: T1, Tubulin (Homo sapiens) (UniProt P68371+Q9H4B7+P0DPH7+P68366+Q13509+Q71U36+P04350+Q3ZCM7+P07437+P68363+Q9BQE3+Q6PEY2+Q13885+Q9BVA1+Q9BUF5); test: Disruption of microtubule network in human WM164 cells assessed as microtubule fragmentation at 100 nM after 18 hrs by DAPI staining based fluorescence confocal microscopic method; type: cell-based
[15] = test system: B16-F10; test: Antimetastatic activity against mouse B16F10 cells xenografted in C57BL/6 mouse assessed as reduction in lung metastasis at 30 mg/kg, ip administered once daily for 2 weeks with 2 days rest after day 5 and measured after 15 days relative to control; type: functional; design: scale not given: the % may be the effect or the level left
[16] = Acute toxicity in nude mouse xenografted with human A375 cells assessed as injury to lung at 30 mg/kg, ip administered once daily for 14 days by hematoxylin and eosin staining-based assay; type: organism-based; settings: in vivo, 336 h
[17] = Acute toxicity in nude mouse xenografted with human A375 cells assessed as injury to lung at 15 mg/kg, ip administered once daily for 14 days by hematoxylin and eosin staining-based assay; type: organism-based; settings: in vivo, 336 h
[18] = Acute toxicity in nude mouse xenografted with human A375 cells assessed as injury to heart at 15 mg/kg, ip administered once daily for 14 days by hematoxylin and eosin staining-based assay; type: organism-based; settings: in vivo, 336 h
[19] = test system: A-375; test: Antitumor activity against human A375 cells xenografted in nude mouse assessed as tumor growth inhibition at 30 mg/kg, ip administered once daily for 14 days and measured after 20 days by caliper method relative to control; type: functional; settings: A-375, ip, read-out: TGI
[20] = Half-life in CD-1 mouse liver microsomes in presence of NADPH regenerating system measured up to 4 hrs by UPLC-MS analysis; type: ADME, Microsome
[21] = Intrinsic clearance in CD-1 mouse liver microsomes in presence of NADPH regenerating system measured up to 4 hrs by UPLC-MS analysis; type: ADME, Microsome; settings: read-out: CLH
[22] = test system: PC-3; test: Antiproliferative activity against human PC3 cells; type: functional, cell-based
[23] = Acute toxicity in C57BL/6 mouse xenografted with mouse B16F10 cells assessed as injury to lung at 30 mg/kg, ip administered once daily for 2 weeks with 2 days rest after day 5 and measured after 15 days by hematoxylin and eosin staining-based assay; type: organism-based; settings: in vivo, 360 h
[24] = test system: DU-145; test: Antiproliferative activity against human DU145 cells; type: functional, cell-based
[25] = test system: A-375; test: Antitumor activity against human A375 cells xenografted in nude mouse assessed as tumor growth inhibition at 15 mg/kg, ip administered once daily for 14 days and measured after 20 days by caliper method relative to control; type: functional; settings: A-375, ip, read-out: TGI
[26] = test system: A-375; test: Antimigratory activity in human A375 cells assessed as wound closure at 25 nM after 22 hrs by scratch migration assay (reference value: 60.7 +/- 3.5%); type: functional
[27] = Acute toxicity in nude mouse xenografted with human A375 cells assessed as injury to kidney at 30 mg/kg, ip administered once daily for 14 days by hematoxylin and eosin staining-based assay; type: organism-based; settings: in vivo, 336 h
[28] = test system: M14; test: Antiproliferative activity against human M14 cells after 72 hrs by MTT assay; type: functional, cell-based; settings: M14, 72 h
[29] = Antitumor activity against human PC3-TxR cells xenografted in nude mouse assessed as tumor growth inhibition at 30 mg/kg administered every other day for 3 weeks relative to control; type: functional; settings: 504 h, read-out: TGI
[30] = Acute toxicity in nude mouse xenografted with human A375 cells assessed as injury to spleen at 15 mg/kg, ip administered once daily for 14 days by hematoxylin and eosin staining-based assay; type: organism-based; settings: in vivo, 336 h
[31] = biological target: 5-hydroxytryptamine receptor 2B (Homo sapiens, UniProt P41595); test: Antagonist activity at human HTR2B at 1 uM
[32] = Half-life in human liver microsomes in presence of NADPH regenerating system; type: ADME, Microsome
[33] = Toxicity in nude mouse xenografted with human PC-3/TxR cells assessed as effect on body weight at 30 mg/kg administered every other day for 3 weeks; settings: in vivo, 504 h
[34] = biological target: T1, Tubulin (Homo sapiens); test: Disruption of microtubule network in human WM164 cells assessed as microtubule disassembly at 100 nM after 18 hrs by DAPI staining based fluorescence confocal microscopic method; type: cell-based
[35] = Antiproliferative activity against human PC3-TxR cells; type: functional, cell-based
[36] = Acute toxicity in nude mouse xenografted with human A375 cells assessed as injury to liver at 30 mg/kg, ip administered once daily for 14 days by hematoxylin and eosin staining-based assay; type: organism-based; settings: in vivo, 336 h
[37] = biological target: Tubulin (Bos taurus) (UniProt Q6B856+Q862L2+Q862F3); test: Inhibition of bovine brain tubulin polymerization at 10 uM measured at time interval of 1 mins for 20 mins by spectrophotometric analysis
[38] = test system: A-375; test: Antitumor activity against human A375 cells xenografted in nude mouse assessed as reduction in tumor weight at 30 mg/kg, ip administered once daily for 14 days relative to control; type: functional; design: scale not given: the % may be the effect or the level left
[39] = Resistance index, ratio of IC50 for human PC3-TxR cells to IC50 for human PC3 cells; type: functional
[40] = Acute toxicity in nude mouse xenografted with human A375 cells assessed as injury to spleen at 30 mg/kg, ip administered once daily for 14 days by hematoxylin and eosin staining-based assay; type: organism-based; settings: in vivo, 336 h
[41] = Half-life in rat liver microsomes pre-incubated for 15 mins followed by addition of NADPH regenerating system by LC-MS analysis; type: ADME, Microsome
[42] = Intrinsic clearance in rat liver microsomes pre-incubated for 15 mins followed by addition of NADPH regenerating system by LC-MS analysis; type: ADME, Microsome; settings: read-out: CLH
[43] = Acute toxicity in nude mouse xenografted with human A375 cells assessed as injury to liver at 15 mg/kg, ip administered once daily for 14 days by hematoxylin and eosin staining-based assay; type: organism-based; settings: in vivo, 336 h
[44] = Antiproliferative activity against human DU145-TxR cells; type: functional, cell-based
[45] = test system: A-375; test: Antiproliferative activity against human A375 cells after 72 hrs by MTT assay; type: functional, cell-based; settings: A-375, 72 h, read-out: IC50
[46] = Resistance index, ratio of IC50 for human DU145-TxR cells to IC50 for human DU145 cells; type: functional
[47] = Antitumor activity against human PC3-TxR cells xenografted in nude mouse assessed as reduction in tumor weight at 30 mg/kg administered every other day for 3 weeks relative to control; type: functional; design: scale not given: the % may be the effect or the level left
[48] = test system: A-375; test: Antimigratory activity in human A375 cells assessed as wound closure at 5 nM after 22 hrs by scratch migration assay (reference value: 60.7 +/- 3.5%); type: functional
[49] = Antitumor activity against human PC3-TxR cells xenografted in nude mouse assessed as reduction in tumor weight at 15 mg/kg administered every other day for 3 weeks relative to control; type: functional; design: scale not given: the % may be the effect or the level left
[50] = Antitumor activity against human PC3-TxR cells xenografted in nude mouse assessed as tumor growth inhibition at 15 mg/kg administered every other day for 3 weeks relative to control; type: functional; settings: 504 h, read-out: TGI
[51] = test system: PC-3; test: Antitumor activity against human PC3 cells xenografted in nude mouse assessed as tumor growth inhibition at 15 mg/kg administered every other day for 3 weeks relative to control; type: functional; settings: PC-3, 504 h, read-out: TGI

Sequence of Sodium-dependent noradrenaline transporter (P23975 whole entry): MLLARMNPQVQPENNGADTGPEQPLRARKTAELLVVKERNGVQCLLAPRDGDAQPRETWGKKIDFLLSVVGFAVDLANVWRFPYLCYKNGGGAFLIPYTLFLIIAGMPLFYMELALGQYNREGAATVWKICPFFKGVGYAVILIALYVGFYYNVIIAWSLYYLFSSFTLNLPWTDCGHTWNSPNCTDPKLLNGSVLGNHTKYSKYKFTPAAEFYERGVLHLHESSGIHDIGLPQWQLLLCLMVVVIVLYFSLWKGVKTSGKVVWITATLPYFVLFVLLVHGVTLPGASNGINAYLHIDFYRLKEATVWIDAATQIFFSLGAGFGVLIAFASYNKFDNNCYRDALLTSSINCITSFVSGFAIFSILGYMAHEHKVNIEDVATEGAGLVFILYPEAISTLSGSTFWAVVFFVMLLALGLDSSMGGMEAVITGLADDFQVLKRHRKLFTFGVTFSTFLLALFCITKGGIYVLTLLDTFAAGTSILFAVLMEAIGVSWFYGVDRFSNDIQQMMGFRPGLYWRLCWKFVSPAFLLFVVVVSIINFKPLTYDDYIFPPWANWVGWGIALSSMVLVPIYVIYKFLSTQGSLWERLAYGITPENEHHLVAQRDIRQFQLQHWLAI
Sequence of 5-hydroxytryptamine receptor 2B (P41595 whole entry): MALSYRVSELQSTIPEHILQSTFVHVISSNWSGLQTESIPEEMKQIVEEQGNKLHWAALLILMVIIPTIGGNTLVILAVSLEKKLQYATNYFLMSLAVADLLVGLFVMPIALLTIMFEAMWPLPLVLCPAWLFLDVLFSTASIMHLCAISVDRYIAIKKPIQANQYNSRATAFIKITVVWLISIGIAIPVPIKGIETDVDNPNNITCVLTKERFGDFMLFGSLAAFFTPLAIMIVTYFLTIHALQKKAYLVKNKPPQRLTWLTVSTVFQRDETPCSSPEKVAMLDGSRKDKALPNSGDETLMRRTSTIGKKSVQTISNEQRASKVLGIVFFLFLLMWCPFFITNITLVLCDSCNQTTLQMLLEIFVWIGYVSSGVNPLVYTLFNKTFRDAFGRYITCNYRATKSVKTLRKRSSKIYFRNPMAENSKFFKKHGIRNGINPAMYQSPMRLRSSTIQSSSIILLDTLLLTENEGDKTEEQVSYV

COc1cc(C(=O)c2c[nH]c(-c3cccc4[nH]ccc34)n2)cc(OC)c1OC
CLint scaled [1]: 3.1 mL/min/kg | Activity [2]: Non-Toxic | IC50 [3]: 1.6 nM | MTD [4]: ≤ 65 mg/kg | Activity [5]: 35% | Activity [6]: Non-Toxic | Activity [7]: Active | Activity [8]: 67.3% | Activity [9]: Non-Toxic | inhibition at 0.005 µM [10]: 35.6% | Activity [11]: Non-Toxic | Activity [12]: Non-Toxic | Activity [13]: Non-Toxic | Activity [14]: Active | Activity [15]: 80.9% | Activity [16]: Non-Toxic | Activity [17]: Non-Toxic | Activity [18]: Non-Toxic | inhibition in vivo at 30 mg/kg [19]: 90.6% | half-life [20]: 5.04 h | CLint scaled [21]: 11.3 mL/min/kg | IC50 [22]: 89.9 nM | Activity [23]: Non-Toxic | IC50 [24]: 169 nM | inhibition in vivo at 15 mg/kg [25]: 82.3% | Activity [26]: 38.5% | Activity [27]: Non-Toxic | IC50 [28]: 3.7 nM | inhibition in vivo at 30 mg/kg [29]: 83.8% | Activity [30]: Non-Toxic | Activity [31]: Active | half-life [32]: 6.72 h | Activity [33]: Non-Toxic | Activity [34]: Active | IC50 [35]: 66.9 nM | Activity [36]: Non-Toxic | inhibition [37]: Active | Activity [38]: 70.1% | Ratio IC50 [39]: 0.7 | Activity [40]: Non-Toxic | half-life [41]: 5.26 h | CLint scaled [42]: 8.9 mL/min/kg | Activity [43]: Non-Toxic | IC50 [44]: 379 nM | IC50 [45]: 3.6 nM | Ratio IC50 [46]: 2.2 | Activity [47]: 62.8% | Activity [48]: 38.5%

CC(=O)O[C@H]1C(=O)[C@@]2(C)[C@H]([C@H](OC(=O)c3ccccc3)[C@]3(O)C[C@H](OC(=O)[C@H](O)[C@@H](NC(=O)c4ccccc4)c4ccccc4)C(C)=C1C3(C)C)[C@]1(OC(C)=O)CO[C@@H]1C[C@@H]2O [PACLITAXEL]
inhibition in vivo at 15 mg/kg [25]: 68.6% | Activity [49]: 34.5% | inhibition in vivo at 15 mg/kg [50]: 37.8% | inhibition in vivo at 15 mg/kg [51]: 101% | IC50 [44]: > 1000 nM
